Experiments:
ECHCG [1] = test: Post-emergence herbicidal effect against ECHCG; type: in vivo, Echinochloa crus-galli; settings: one-leaf stage, 80 g/ha, assessed visually after about 3 weeks vs untreated controls, 100% = plants have died
Procedure: (§1) Seeds of monocotyledonous and dicotyledonous weed and crop plants are laid out in sandy loam soil in wood-fiber pots, covered with soil and cultivated in a greenhouse under good growth conditions. 2 to 3 weeks after sowing, the test plants are treated at the one-leaf stage. The compounds of the invention, formulated in the form of wettable powders (WP) or as emulsion concentrates (EC), are then sprayed onto the green parts of the plants as aqueous suspension or emulsion at a water application rate equating to 600 to 800 l/ha with addition of 0.2% wetting agent. After the test plants have been left to stand in the greenhouse under optimal growth conditions for about 3 weeks, the action of the preparations is assessed visually in comparison to untreated controls (herbicidal action in percent (%): 100% activity=the plants have died, 0% activity=like control plants).

ALOMY [2] = test: Post-emergence herbicidal effect against ALOMY; type: in vivo, Alopecurus myosuroides; settings: one-leaf stage, 80 g/ha, assessed visually after about 3 weeks vs untreated controls, 100% = plants have died
Procedure: as §1

SETVI [3] = test: Post-emergence herbicidal effect against SETVI; type: in vivo, Setaria viridis; settings: one-leaf stage, 80 g/ha, assessed visually after about 3 weeks vs untreated controls, 100% = plants have died
Procedure: as §1

SETVI [4] = test: Pre-emergence herbicidal effect against SETVI; type: in vivo, Setaria viridis; settings: 320 g/ha, scored visually after 3 weeks vs untreated controls, 100% = plants have died
Source text: (§2) Seeds of monocotyledonous and dicotyledonous weed plants and crop plants are laid out in sandy loam soil in wood-fiber pots and covered with soil. The compounds of the invention, formulated in the form of wettable powders (WP) or as emulsion concentrates (EC), are then applied to the surface of the covering soil as aqueous suspension or emulsion at a water application rate equating to 600 to 800 L/ha with addition of 0.2% wetting agent.
(§3) After the treatment, the pots are placed in a greenhouse and kept under good growth conditions for the trial plants. The damage to the test plants is scored visually after a test period of 3 weeks by comparison with untreated controls (herbicidal activity in percent (%): 100% activity=the plants have died, 0% activity=like control plants).

ECHCG [5] = test: Pre-emergence herbicidal effect against ECHCG; type: in vivo, Echinochloa crus-galli; settings: 320 g/ha, scored visually after 3 weeks vs untreated controls, 100% = plants have died
Source text: as §2, §3

ALOMY [6] = test: Pre-emergence herbicidal effect against ALOMY; type: in vivo, Alopecurus myosuroides; settings: 320 g/ha, scored visually after 3 weeks vs untreated controls, 100% = plants have died
Source text: as §2, §3

DIGSA = test: Pre-emergence herbicidal effect against DIGSA; type: in vivo, Digitaria sanguinalis; settings: 320 g/ha, scored visually after 3 weeks vs untreated controls, 100% = plants have died
Source text: as §2, §3

LOLRI = test: Pre-emergence herbicidal effect against LOLRI; type: in vivo, Lolium rigidum; settings: 320 g/ha, scored visually after 3 weeks vs untreated controls, 100% = plants have died
Source text: as §2, §3

AVEFA = test: Pre-emergence herbicidal effect against AVEFA; type: in vivo, Avena fatua; settings: 320 g/ha, scored visually after 3 weeks vs untreated controls, 100% = plants have died
Source text: as §2, §3

SMILES	Post-emergence action [%] against ECHCG (ECHCG [1]) [%]	Post-emergence action [%] against ALOMY (ALOMY [2]) [%]	Post-emergence action [%] against SETVI (SETVI [3]) [%]	Pre-emergence action [%] against SETVI (SETVI [4]) [%]	Pre-emergence action [%] against ECHCG (ECHCG [5]) [%]	Pre-emergence action [%] against ALOMY (ALOMY [6]) [%]	Pre-emergence action [%] against DIGSA (DIGSA) [%]	Pre-emergence action [%] against LOLRI (LOLRI) [%]	Pre-emergence action [%] against AVEFA (AVEFA) [%]
CC#Cc1cc(Br)c(C2=C(OC(=O)OCC)C3(CCC(OC)CC3)NC2=O)c(CC)c1 (stereo not drawn) [Example P34]	90	100	100	100	–	–	–	–	–
CC#Cc1cc(Cl)c(C2=C(OC(=O)C(C)C)C3(CCC(OCC)CC3)NC2=O)c(CC)c1 (stereo not drawn) [Example P31]	–	100	100	100	100	100	100	100	90
CC#Cc1cc(C)c(C2=C(OC(=O)OC(C)(C)C)C3(CCCC(OCC(C)C)C3)NC2=O)c(Cl)c1 (stereo not drawn) [Example Q7]	–	–	–	100	–	80	–	–	–
CC#Cc1cc(Cl)c(C2=C(OC(=O)OC)C3(CCC(OCCOC)CC3)NC2=O)c(CC)c1 (stereo not drawn) [Example P28]	80	–	80	100	100	100	100	–	80
CC#Cc1cc(Cl)c(C2=C(OC(=O)OC(C)(C)C)C3(CCC(OCCOC)CC3)NC2=O)c(CC)c1 (stereo not drawn) [Example P29]	90	–	90	80	90	80	90	–	80
CC#Cc1cc(Cl)c(C2=C(OC(=O)C(C)C)C3(CCC(OCCOC)CC3)NC2=O)c(CC)c1 (stereo not drawn) [Example P32]	–	–	90	100	100	100	90	90	–
CC#Cc1cc(Cl)c(C2=C(OC(=O)OCC)C3(CCC(OCCOC)CC3)NC2=O)c(CC)c1 (stereo not drawn) [Example P23]	–	80	80	100	100	100	100	100	80
CC#Cc1cc(Br)c(C2=C(OC(=O)OCC)C3(CCCC(OCCOC)C3)NC2=O)c(CC)c1 (stereo not drawn) [Example Q1]	–	80	90	100	–	90	–	90	–
CC#Cc1cc(C)c(C2=C(OC(=O)C(C)C)C3(CCC(CC)CC3)NC2=O)c(Cl)c1 (stereo not drawn) [Example P1, 3-[2-Chloro-6-methyl-4-(prop-1-yn-1-yl)phenyl]-8-ethyl-2-oxo-1-azaspiro[4.5]dec-3-en-4-yl 2-methylpropanoate]	–	–	100	–	–	–	–	–	–

From US20220151230A1, “SPECIFICALLY SUBSTITUTED 3-(2-HALOGEN-6-ALKYL-4-PROPINYLPHENYL)-3-PYRROLIN-2-ONES AND TO THE USE THEREOF AS HERBICIDES” (Bayer Aktiengesellschaft, priority 2019, published 2022)
